ChEMBL document CHEMBL5385861, “Development of novel hydrazidoarylaminopyrimidine-based BTK/FLT3 dual inhibitors with potent in vivo anti-hematological malignancies effects” (Eur J Med Chem, 2023)
Calls of active or inactive are those of the source. The rule behind the calls is not given here.

Columns and labels:
[1] = target: Serine/threonine-protein kinase B-raf (Homo sapiens) (UniProt P15056); assay: Inhibition of B-Raf (unknown origin) at 0.2 uM incubated for 40 mins by radiometric kinase assay relative to control
Sequence of Serine/threonine-protein kinase B-raf (Homo sapiens) (P15056 whole entry): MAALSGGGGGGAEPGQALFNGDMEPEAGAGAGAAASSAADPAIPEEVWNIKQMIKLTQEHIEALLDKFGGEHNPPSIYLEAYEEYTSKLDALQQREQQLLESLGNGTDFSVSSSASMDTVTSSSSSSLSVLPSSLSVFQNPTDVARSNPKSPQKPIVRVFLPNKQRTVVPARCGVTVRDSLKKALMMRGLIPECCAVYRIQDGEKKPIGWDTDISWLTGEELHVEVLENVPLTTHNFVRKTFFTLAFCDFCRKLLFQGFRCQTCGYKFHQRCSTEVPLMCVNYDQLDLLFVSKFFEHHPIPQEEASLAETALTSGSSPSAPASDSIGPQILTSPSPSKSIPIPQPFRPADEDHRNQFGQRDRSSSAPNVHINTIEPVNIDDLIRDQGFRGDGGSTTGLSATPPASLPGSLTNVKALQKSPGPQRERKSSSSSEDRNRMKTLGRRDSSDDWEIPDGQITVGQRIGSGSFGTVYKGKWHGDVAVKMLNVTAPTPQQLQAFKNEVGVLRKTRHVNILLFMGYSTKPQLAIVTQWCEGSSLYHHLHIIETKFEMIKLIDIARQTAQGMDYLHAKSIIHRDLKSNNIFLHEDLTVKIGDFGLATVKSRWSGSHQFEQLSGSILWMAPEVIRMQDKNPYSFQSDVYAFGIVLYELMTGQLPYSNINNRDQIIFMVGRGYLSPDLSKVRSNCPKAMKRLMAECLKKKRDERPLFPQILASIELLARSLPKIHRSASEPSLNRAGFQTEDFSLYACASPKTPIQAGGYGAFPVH

[2] = target: Calcium/calmodulin-dependent protein kinase kinase 2 (Homo sapiens) (UniProt Q96RR4); assay: Inhibition of CaMKK2 (unknown origin) at 0.2 uM incubated for 40 mins by radiometric kinase assay relative to control
Sequence of Calcium/calmodulin-dependent protein kinase kinase 2 (Homo sapiens) (Q96RR4 2-588 limits assumed): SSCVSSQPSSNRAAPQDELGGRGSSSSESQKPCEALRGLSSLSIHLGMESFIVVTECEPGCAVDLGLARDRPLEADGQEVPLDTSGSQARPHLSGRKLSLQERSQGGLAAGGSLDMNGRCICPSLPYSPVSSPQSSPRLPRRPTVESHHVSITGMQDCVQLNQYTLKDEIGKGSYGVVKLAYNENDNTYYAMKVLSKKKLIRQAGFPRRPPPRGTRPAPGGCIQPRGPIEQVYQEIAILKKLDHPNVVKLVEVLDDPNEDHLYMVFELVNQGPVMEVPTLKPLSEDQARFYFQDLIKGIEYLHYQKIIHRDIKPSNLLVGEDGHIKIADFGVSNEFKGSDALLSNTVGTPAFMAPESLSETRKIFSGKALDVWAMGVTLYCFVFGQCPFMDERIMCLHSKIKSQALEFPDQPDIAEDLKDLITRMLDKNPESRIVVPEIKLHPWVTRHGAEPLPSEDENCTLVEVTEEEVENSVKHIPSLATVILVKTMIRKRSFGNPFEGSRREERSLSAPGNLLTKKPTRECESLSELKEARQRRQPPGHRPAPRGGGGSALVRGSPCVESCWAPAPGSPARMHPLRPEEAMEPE

[3] = test system: Receptor-type tyrosine-protein kinase FLT3 (Homo sapiens), P36888 [D835Y]; assay: Inhibition of FLT3 D835Y mutant (unknown origin) at 0.2 uM incubated for 40 mins by radiometric kinase assay relative to control
[4] = target: Macrophage colony-stimulating factor 1 receptor (Homo sapiens) (UniProt P07333); assay: Inhibition of Fms (unknown origin) at 0.2 uM incubated for 40 mins by radiometric kinase assay relative to control
Sequence of Macrophage colony-stimulating factor 1 receptor (Homo sapiens) (P07333 whole entry): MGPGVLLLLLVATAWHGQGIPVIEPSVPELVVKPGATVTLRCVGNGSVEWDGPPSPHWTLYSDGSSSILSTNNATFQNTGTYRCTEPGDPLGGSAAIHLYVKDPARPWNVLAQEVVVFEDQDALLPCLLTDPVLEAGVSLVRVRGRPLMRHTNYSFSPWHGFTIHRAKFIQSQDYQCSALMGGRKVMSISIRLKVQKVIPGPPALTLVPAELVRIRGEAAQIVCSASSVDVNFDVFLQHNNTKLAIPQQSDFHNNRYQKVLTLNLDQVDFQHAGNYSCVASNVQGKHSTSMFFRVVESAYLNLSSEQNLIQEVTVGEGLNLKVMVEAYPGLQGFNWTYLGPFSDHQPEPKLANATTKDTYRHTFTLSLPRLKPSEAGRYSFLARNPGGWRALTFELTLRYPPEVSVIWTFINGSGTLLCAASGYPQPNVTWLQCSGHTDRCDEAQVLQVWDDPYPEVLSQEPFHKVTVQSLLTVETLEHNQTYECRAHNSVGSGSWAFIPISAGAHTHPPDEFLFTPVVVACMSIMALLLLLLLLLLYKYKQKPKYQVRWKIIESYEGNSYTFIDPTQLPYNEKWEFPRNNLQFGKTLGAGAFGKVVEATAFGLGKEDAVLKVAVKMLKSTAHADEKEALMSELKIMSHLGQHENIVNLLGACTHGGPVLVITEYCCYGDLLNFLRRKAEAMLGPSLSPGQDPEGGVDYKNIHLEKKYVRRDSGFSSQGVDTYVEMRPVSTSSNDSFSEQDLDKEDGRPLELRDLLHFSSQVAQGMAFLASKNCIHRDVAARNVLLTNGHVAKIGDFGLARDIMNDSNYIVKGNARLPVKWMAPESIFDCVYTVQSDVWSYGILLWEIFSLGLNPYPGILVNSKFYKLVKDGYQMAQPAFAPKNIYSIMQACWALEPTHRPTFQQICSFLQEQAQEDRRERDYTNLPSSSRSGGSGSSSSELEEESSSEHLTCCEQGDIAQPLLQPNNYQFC

[5] = target: Histone deacetylase (Homo sapiens) (UniProt Q13547+O15379+Q9UBN7+Q92769+Q9UQL6+Q8WUI4+Q9BY41+Q96DB2+P56524+Q9UKV0+Q969S8); assay: Inhibition of HDAC (unknown origin) at 0.2 uM incubated for 40 mins by radiometric kinase assay relative to control; format: protein assay
[6] = target: Inhibitor of nuclear factor kappa-B kinase subunit beta (Homo sapiens) (UniProt O14920); assay: Inhibition of IKKbeta (unknown origin) at 0.2 uM incubated for 40 mins by radiometric kinase assay relative to control
[7] = target: Mitogen-activated protein kinase 8 (Homo sapiens) (UniProt P45983); assay: Inhibition of JNK1alpha1 (unknown origin) at 0.2 uM incubated for 40 mins by radiometric kinase assay relative to control
Sequence of Mitogen-activated protein kinase 8 (Homo sapiens) (P45983 whole entry): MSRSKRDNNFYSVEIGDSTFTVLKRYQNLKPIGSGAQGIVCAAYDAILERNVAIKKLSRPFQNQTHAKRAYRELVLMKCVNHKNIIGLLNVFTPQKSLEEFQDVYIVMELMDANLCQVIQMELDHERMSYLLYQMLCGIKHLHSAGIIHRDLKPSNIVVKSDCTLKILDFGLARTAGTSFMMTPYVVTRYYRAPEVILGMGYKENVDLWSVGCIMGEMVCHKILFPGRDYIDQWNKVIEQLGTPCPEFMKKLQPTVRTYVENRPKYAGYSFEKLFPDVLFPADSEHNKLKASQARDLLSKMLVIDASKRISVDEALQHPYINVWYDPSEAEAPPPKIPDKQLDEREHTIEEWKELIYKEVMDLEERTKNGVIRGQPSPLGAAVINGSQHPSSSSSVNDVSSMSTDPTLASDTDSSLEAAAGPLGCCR

[8] = target: MAP kinase-activated protein kinase 2 (Homo sapiens) (UniProt P49137); assay: Inhibition of MAPKAP-K2 (unknown origin) at 0.2 uM incubated for 40 mins by radiometric kinase assay relative to control
Sequence of MAP kinase-activated protein kinase 2 (Homo sapiens) (P49137 whole entry, looked up): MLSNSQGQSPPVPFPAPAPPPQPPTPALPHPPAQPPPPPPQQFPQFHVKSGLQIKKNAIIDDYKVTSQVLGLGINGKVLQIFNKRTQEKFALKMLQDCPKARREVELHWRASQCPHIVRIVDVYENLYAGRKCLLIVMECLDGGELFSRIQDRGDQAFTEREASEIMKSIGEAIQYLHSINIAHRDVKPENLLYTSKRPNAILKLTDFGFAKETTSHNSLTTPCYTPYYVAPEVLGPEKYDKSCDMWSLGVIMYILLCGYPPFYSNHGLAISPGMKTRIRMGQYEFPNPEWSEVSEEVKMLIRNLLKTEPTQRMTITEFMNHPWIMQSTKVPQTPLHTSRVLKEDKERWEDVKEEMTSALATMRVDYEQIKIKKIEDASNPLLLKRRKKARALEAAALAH

[9] = target: Dual specificity mitogen-activated protein kinase kinase 1 (Homo sapiens) (UniProt Q02750); assay: Inhibition of MEK1 (unknown origin) at 0.2 uM incubated for 40 mins by radiometric kinase assay relative to control
Sequence of Dual specificity mitogen-activated protein kinase kinase 1 (Homo sapiens) (Q02750 whole entry): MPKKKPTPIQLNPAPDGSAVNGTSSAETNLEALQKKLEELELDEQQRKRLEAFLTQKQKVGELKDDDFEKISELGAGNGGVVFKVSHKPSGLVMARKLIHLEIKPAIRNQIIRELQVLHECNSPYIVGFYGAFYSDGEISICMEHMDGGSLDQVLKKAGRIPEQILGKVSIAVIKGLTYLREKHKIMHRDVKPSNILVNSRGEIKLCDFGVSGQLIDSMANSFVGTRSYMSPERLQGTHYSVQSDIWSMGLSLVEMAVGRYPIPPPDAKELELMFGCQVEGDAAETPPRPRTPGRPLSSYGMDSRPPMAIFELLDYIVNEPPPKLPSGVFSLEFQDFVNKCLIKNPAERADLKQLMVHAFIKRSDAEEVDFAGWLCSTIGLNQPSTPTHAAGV

[10] = target: PI3-kinase p110-alpha/p85-alpha (Homo sapiens) (UniProt P27986+P42336); assay: Inhibition of PI3 Kinase p110a/p85a (unknown origin) at 0.2 uM incubated for 40 mins by radiometric kinase assay relative to control; format: protein-complex assay
[11] = target: Tyrosine-protein kinase receptor TYRO3 (Homo sapiens) (UniProt Q06418); assay: Inhibition of RSE (unknown origin) at 0.2 uM incubated for 40 mins by radiometric kinase assay relative to control
Sequence of Tyrosine-protein kinase receptor TYRO3 (Homo sapiens) (Q06418 whole entry): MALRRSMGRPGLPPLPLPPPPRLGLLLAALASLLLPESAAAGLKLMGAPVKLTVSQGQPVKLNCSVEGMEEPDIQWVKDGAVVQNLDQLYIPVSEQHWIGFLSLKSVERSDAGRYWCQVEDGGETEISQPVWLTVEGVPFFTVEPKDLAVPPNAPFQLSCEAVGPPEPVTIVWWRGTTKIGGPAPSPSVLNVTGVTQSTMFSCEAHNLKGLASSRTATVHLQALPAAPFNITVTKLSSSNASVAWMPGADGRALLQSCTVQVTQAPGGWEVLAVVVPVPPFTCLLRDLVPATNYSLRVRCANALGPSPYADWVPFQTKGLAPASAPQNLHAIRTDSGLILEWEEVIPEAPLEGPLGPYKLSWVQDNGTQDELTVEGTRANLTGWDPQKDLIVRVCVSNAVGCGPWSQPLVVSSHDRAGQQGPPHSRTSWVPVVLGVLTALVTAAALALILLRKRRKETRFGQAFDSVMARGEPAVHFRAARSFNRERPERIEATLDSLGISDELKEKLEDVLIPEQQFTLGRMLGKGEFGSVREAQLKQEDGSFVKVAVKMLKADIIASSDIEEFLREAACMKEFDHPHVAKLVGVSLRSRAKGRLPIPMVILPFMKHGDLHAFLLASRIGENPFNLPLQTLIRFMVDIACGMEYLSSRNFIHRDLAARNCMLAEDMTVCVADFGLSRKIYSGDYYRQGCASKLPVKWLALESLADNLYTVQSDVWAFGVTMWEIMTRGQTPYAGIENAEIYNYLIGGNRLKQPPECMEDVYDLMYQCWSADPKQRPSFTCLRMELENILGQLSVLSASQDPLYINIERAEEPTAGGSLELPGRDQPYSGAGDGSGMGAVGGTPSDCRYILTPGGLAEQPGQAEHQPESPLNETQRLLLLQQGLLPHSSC

[12] = target: Tyrosine-protein kinase SYK (Homo sapiens) (UniProt P43405); assay: Inhibition of SYK (unknown origin) at 0.2 uM incubated for 40 mins by radiometric kinase assay relative to control
MV4-11 [13] = assay: Potency index, ratio of ibrutinib IC50 to test compound IC50 for antiproliferative activity against human MV4-11 cells; format: functional
JeKo-1 [14] = assay: Potency index, ratio of sorafenib IC50 to test compound IC50 for antiproliferative activity against human JeKo-1 cells; format: functional
MOLT-4 = assay: Potency index, ratio of sorafenib IC50 to test compound IC50 for antiproliferative activity against human MOLT-4 cells; format: functional
K562 [15] = assay: Potency index, ratio of sorafenib IC50 to test compound IC50 for antiproliferative activity against human K562 cells; format: functional
[16] = target: Signal transducer and activator of transcription 5A (Homo sapiens) (UniProt P42229); assay: Inhibition of STAT5 phosphorylation in human JeKo-1 cells incubated for 72 hrs by Western blot analysis; format: cell-based; settings: dose 30-750 nM
JeKo-1 [17] = assay: Induction of apoptosis in human JeKo-1 cells assessed as viable cells at 30 nM incubated for 72 hrs by Annexin VFITC/PI staining based flow cytometry analysis (reference value: 94.81%); format: functional; settings: read-out: Activity
JeKo-1 [18] = assay: Induction of apoptosis in human JeKo-1 cells assessed as late apoptotic cells at 30 nM incubated for 72 hrs by Annexin VFITC/PI staining based flow cytometry analysis (reference value: 1.42%); format: functional
JeKo-1 [19] = assay: Induction of apoptosis in human JeKo-1 cells assessed as viable cells at 150 nM incubated for 72 hrs by Annexin VFITC/PI staining based flow cytometry analysis (reference value: 94.81%); format: functional; settings: read-out: Activity
JeKo-1 [20] = assay: Induction of apoptosis in human JeKo-1 cells assessed as upregulation of Bax protein expression at 30 to 750 nM incubated for 72 hrs by Western blot analysis; format: functional, cell-based; settings: dose 30-750 nM
[21] = Metabolic stability in human liver microsome assessed as half life preincubated with compound for 5 mins followed by NADPH addition and measured upto 60 mins by LC-MS/MS analysis; format: ADME; settings: liver microsomes, time < 65 min
[22] = Acute toxicity in ICR mouse assessed as animal survival at 468.8 mg/kg, ip measured for 2 weeks; format: organism-based; settings: in vivo
[23] = Acute toxicity in ICR mouse assessed as animal survival at 240 mg/kg, ip measured for 2 weeks; format: organism-based; settings: in vivo
[24] = Acute toxicity in ip dosed ICR mouse assessed as lethal dose measured for 2 weeks; format: organism-based; settings: in vivo
[25] = Acute toxicity in ip dosed ICR mouse assessed as effect on RBC level at 200 mg/kg, ip measured for 2 weeks; format: organism-based, Erythrocyte; settings: in vivo, 336 h
JeKo-1 [26] = assay: Antitumor activity against human JeKo-1 cells xenografted NOD/SCID mouse assessed as tumor growth inhibition at 25 mg/kg, ip measured for 16 days; format: functional; settings: JeKo-1, 384 h, time 16 day, read-out: TGI
JeKo-1 [27] = assay: Antitumor activity against human JeKo-1 cells xenografted NOD/SCID mouse assessed as tumor growth inhibition at 50 mg/kg, ip measured for 16 days; format: functional; settings: JeKo-1, 384 h, time 16 day, read-out: TGI
[28] = Toxicity in NOD/SCID mouse xenografted with human JeKo-1 cells assessed as drinking abnormalities at 25 to 50 mg/kg, ip measured for 16 days; format: organism-based; settings: in vivo, 384 h, dose 25-50 mg/kg, time 16 day
[29] = Toxicity in NOD/SCID mouse xenografted with human JeKo-1 cells assessed as eating abnormalities at 25 to 50 mg/kg, ip measured for 16 days; format: organism-based; settings: in vivo, 384 h, dose 25-50 mg/kg, time 16 day
[30] = Toxicity in NOD/SCID mouse xenografted with human JeKo-1 cells assessed as abnormal activity at 25 to 50 mg/kg, ip measured for 16 days; format: organism-based; settings: in vivo, 384 h, dose 25-50 mg/kg, time 16 day
JeKo-1 [31] = assay: Antitumor activity against human JeKo-1 cells xenografted NOD/SCID mouse assessed as reduction in tumor weight at 25 mg/kg, ip measured for 16 days; format: functional; settings: time 16 day
MV4-11 [32] = assay: Antitumor activity against human MV4-11 cells xenografted in ip dosed NOD/SCID mouse assessed as suppression of tumor growth administered once daily for 21 days; format: functional, organism-based; settings: dose 10-20 mg/kg, time 21.0 day
MV4-11 [33] = assay: Antitumor activity against human MV4-11 cells xenografted NOD/SCID mouse assessed as reduction in tumor weight at 10 mg/kg, ip administered once daily for 21 days; format: functional; settings: time 21 day
K562 [34] = assay: cells; settings: Homo sapiens, K562, 72 h
Description: Antiproliferative activity against human K562 cells assessed as inhibition of cell growth incubated for 72 hrs by CCK8 assay

For `CN1CCN(c2ccc(Nc3ncc(F)c(Nc4ccccc4C(=O)NN)n3)cc2)CC1`, the inhibition [1] was 17%, the inhibition [2] was 27% and the inhibition [3] was 101%. For the same compound, the inhibition [4] was 67%, the inhibition [5] was 5% and the inhibition [6] was 15%. For the same compound, the inhibition [7] was 27%, the inhibition [8] was 6% and the inhibition [9] was -3%. It also gave an inhibition [10] of 13%, an inhibition [11] of 24% and an inhibition [12] of 4%. The “Ratio IC50” value (MV4-11 [13]) was 6, the “Ratio IC50” value (JeKo-1 [14]) was 1.3 and the “Ratio IC50” value (MOLT-4) was 1.3. For the same compound, the “Ratio IC50” value (K562 [15]) was 1.3, the inhibition [16] was “Dose-Dependent Effect” and the viability at 0.03 µM (JeKo-1 [17]) was 87.5%. For the same compound, the Activity (JeKo-1 [18]) was 0.18%, the viability at 0.15 µM (JeKo-1 [19]) was 72.4% and the Activity (JeKo-1 [20]) was “Active”. The half-life [21] was 41.5 min, the survival at 336 h [22] was 10% and the survival at 336 h [23] was 100%. For the same compound, the LD50 at 336 h [24] was 343 mg/kg, the Activity [25] was “Toxic” and the inhibition in vivo at 25 mg/kg (JeKo-1 [26]) was 67%. The inhibition in vivo at 50 mg/kg (JeKo-1 [27]) was 79.8%, the Activity [28] was “Non-Toxic” and the Activity [29] was “Non-Toxic”. For the same compound, the Activity [30] was “Non-Toxic”, the Activity (JeKo-1 [31]) was 0.31 g and the Activity (MV4-11 [32]) was “Dose-Dependent Effect”. It also gave an Activity (MV4-11 [33]) of 0.33 g and an IC50 (K562 [34]) of 930 nM.
